Experimental data: patent US9586951B2 (FUJIFILM Corporation, priority 2013, dated 2017)
Counter-ions that a name gives are not always drawn.

What follows are compounds tested against T1, ATM (Homo sapiens, UniProt Q13315) (assay: ATM inhibition test (phosphorylation of Chk2 generated by ionizing radiation, AlphaScreen SureFire)). Settings: phosphorylated Chk2 in NCI-H460 cells, ionizing radiation 8Gy, 1 hour after test compound treatment; read-out: ATM inhibitory activity.
T1 construct: detecting phosphorylation of Chk2 in a human non-small cell lung cancer cell line NCI-H460 (ATCC company); host or cells: NCI-H460 human non-small cell lung cancer cells
T1 sequence (Q13315 whole entry): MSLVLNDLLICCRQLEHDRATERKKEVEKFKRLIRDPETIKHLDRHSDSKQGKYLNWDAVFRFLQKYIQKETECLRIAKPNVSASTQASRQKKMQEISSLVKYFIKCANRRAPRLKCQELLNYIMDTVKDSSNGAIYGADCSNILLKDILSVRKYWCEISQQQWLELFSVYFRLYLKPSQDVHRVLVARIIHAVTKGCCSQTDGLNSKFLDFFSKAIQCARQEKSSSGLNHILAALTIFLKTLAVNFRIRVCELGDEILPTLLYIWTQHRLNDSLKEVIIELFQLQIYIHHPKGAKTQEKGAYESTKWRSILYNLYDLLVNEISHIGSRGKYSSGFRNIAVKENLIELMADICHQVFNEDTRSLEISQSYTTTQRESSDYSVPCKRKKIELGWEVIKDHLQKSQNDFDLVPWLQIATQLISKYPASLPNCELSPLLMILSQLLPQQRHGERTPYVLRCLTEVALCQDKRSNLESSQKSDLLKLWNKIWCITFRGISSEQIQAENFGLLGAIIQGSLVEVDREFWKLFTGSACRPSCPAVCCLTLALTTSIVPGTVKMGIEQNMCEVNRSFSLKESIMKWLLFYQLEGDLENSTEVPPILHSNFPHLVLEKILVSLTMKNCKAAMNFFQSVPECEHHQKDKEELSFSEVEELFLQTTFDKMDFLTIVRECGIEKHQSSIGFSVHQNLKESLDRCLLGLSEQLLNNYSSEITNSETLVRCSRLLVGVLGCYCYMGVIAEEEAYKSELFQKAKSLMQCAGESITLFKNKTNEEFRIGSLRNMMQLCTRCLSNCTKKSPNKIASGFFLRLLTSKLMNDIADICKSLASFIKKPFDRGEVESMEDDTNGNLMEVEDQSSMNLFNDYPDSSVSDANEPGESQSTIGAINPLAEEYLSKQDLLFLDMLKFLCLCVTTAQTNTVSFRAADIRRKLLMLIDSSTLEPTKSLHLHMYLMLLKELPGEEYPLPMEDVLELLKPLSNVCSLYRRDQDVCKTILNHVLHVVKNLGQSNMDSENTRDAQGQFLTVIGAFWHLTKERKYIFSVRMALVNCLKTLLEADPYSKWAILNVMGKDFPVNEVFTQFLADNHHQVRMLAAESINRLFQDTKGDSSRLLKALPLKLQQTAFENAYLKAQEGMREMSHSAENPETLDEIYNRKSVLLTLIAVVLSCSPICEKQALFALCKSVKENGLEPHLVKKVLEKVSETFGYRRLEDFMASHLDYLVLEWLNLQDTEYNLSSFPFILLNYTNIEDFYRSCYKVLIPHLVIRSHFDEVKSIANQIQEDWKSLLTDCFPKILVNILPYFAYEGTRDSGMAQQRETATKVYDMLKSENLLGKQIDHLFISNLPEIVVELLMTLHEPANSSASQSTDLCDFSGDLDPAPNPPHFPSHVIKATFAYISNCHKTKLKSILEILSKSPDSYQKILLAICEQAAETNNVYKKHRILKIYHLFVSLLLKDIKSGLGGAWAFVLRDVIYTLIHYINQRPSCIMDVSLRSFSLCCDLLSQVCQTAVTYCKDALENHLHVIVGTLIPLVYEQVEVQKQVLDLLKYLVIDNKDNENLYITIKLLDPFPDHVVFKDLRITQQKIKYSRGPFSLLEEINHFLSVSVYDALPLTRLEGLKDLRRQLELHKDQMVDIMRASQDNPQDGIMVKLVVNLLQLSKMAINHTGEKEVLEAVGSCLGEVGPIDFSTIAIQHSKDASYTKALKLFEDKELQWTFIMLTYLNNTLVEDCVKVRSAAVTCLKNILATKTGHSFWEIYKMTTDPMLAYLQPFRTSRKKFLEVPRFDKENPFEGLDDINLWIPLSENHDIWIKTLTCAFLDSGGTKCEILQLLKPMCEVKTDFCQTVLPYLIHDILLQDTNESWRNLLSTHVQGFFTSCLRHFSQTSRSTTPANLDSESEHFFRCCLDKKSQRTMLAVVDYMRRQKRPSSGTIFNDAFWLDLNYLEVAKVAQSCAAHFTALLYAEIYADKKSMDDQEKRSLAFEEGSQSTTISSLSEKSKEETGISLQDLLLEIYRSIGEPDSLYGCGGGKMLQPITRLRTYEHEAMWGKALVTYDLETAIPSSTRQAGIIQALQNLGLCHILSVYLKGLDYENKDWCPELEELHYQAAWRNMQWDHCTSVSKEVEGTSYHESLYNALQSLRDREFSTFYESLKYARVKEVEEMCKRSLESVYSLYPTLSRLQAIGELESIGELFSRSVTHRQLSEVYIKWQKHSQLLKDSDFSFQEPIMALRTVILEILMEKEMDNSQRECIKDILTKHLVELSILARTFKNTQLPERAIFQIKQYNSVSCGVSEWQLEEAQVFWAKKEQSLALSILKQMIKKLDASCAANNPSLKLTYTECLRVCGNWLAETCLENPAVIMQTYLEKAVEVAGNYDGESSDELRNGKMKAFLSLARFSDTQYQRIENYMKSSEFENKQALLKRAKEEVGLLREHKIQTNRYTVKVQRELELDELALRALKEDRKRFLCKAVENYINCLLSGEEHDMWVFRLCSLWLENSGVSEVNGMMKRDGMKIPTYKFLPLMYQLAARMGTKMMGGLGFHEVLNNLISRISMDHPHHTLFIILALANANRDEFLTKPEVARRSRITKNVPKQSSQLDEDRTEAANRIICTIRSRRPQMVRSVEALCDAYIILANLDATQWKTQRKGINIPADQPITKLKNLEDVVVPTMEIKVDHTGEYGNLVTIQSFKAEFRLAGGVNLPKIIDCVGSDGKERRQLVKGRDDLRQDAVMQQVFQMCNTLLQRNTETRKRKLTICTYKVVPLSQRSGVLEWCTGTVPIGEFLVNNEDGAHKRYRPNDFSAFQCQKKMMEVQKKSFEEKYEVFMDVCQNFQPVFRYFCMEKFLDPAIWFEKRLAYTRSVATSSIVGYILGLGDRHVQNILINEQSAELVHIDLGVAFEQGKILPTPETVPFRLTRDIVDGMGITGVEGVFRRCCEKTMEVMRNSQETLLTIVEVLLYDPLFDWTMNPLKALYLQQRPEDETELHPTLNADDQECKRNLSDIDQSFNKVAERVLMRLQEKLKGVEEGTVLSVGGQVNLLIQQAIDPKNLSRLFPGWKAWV
Format: cell-based
Outline: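 Phosphorylated Chk2 read by AlphaScreen SureFire in human non-small cell lung cancer NCI-H460 cells, 1 hour after 8Gy ionizing radiation at 37° C. Compound added 1 hour before irradiation. Percent inhibition normalised between irradiated and non-irradiated drug-untreated signals.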
For `O=c1cc(N2CCOCC2)cc(-c2cccc3c2Oc2ccc(NCc4ncccn4)cc2C3)[nH]1` [Example 2-3-4, 4-Morpholino-6-(7-((pyrimidin-2-ylmethyl)amino)-9H-xanthen-4-yl) pyridin-2(1H)-one], the IC50 was 500 to 2000 nM.
`O=c1cc(N2CCOCC2)cc(-c2cccc3c2Sc2ccc(NCCN4CCSCC4)cc2S3)[nH]1` [Example 1-16-4, 4-Morpholino-6-(7-((2-thiomorpholinoethyl)amino)thianthren-1-yl)pyridin-2(1H)-one] gave an IC50 of under 100 nM.
`O=c1cc(N2CCOCC2)cc(-c2cccc3c2Oc2ccc(NCc4cccc(C5CC5)n4)cc2C3)[nH]1` [Example 2-2-68, 6-(7-(((6-Cyclopropylpyridin-2-yl)methyl)amino)-9H-xanthen-4-yl)-4-morpholino pyridin-2(1H)-one] showed an IC50 of 100 to 500 nM.
`O=c1cc(N2CCOCC2)cc(-c2cccc3c2Oc2ccc(NCc4cncc(Cl)c4)cc2S3)[nH]1` [Example 4-8-6, 6-(8-(((5-Chloropyridin-3-yl)methyl)amino)phenoxathiin-4-yl)-4-morpholino pyridin-2(1H)-one] showed an IC50 of 100 to 500 nM.
Compound `Nc1ccc(CCN2CCC(Nc3ccc4c(c3)Cc3cccc(-c5cc(N6CCOCC6)cc(=O)[nH]5)c3O4)CC2)cc1` [Example 2-31, hydrochloride of 6-(7-((1-(4-aminophenethyl)piperidin-4-yl)amino)-9H-xanthen-4-yl)-4-morpholinopyridin-2(1H)-one] has an IC50 of 100 to 500 nM.
For `CNc1cncc(CNc2ccc3c(c2)Cc2cccc(-c4cc(N5CCOCC5)cc(=O)[nH]4)c2O3)c1` [Example 2-21-4, 6-(7-(((5-(Methylamino)pyridin-3-yl)methyl)amino)-9H-xanthen-4-yl)-4-morpholino pyridin-2(1H)-one], the IC50 was 100 to 500 nM.
Work on `CC(=O)Nc1ccc(CCN2CCC(Nc3ccc4c(c3)Cc3cccc(-c5cc(N6CCOCC6)cc(=O)[nH]5)c3O4)CC2)cc1` [Example 2-32, N-(4-(2-(4-((5-(4-morpholino-6-oxo-1,6-dihydropyridin-2-yl)-9H-xanthen-2-yl)amino)piperidin-1-yl)ethyl)phenyl)acetamide] yielded an IC50 of 100 to 500 nM.
Compound `COCCN1CCOC(C(Nc2ccc3c(c2)Sc2cccc(-c4cc(N5CCOCC5)cc(=O)[nH]4)c2S3)c2ccc(C)cn2)C1` (single isomer, unassigned) [Example 1-56-8, 6-(7-(((4-(2-Methoxyethyl)morpholin-2-yl)(5-methylpyridin-2-yl)methyl)amino)thianthren-1-yl)-4-morpholino pyridin-2(1H)-one] has an IC50 of under 100 nM.
Work on `CCOC(=O)c1ccc(CNc2ccc3c(c2)Sc2cccc(-c4cc(N5CCOCC5)cc(=O)[nH]4)c2S3)nc1` [Example 1-12-112, Ethyl 6-(((6-(4-morpholino-6-oxo-1,6-dihydropyridin-2-yl)thianthren-2-yl)amino)methyl)nicotinate] yielded an IC50 of 100 to 500 nM.
Work on `Cc1ccnc(C(C)Nc2ccc3c(c2)Cc2cccc(-c4cc(N5CCOCC5)cc(=O)[nH]4)c2O3)n1` (stereo not shown) [Example 2-14-79, 6-(7-((1-(4-Methylpyrimidin-2-yl)ethyl)amino)-9H-xanthen-4-yl)-4-morpholino pyridin-2(1H)-one] yielded an IC50 of 100 to 500 nM.
With `O=c1cc(N2CCOCC2)cc(-c2cccc3c2Oc2ccc(NCc4cccnc4)cc2CC3)[nH]1` [Example 2-51-2, 4-Morpholino-6-(8-((pyridin-3-ylmethyl)amino)-10,11-dihydrodibenz[b,f]oxepin-4-yl)pyridin-2(1H)-one] the IC50 was 100 to 500 nM.
`O=c1cc(N2CCOCC2)cc(-c2cccc3c2Oc2ccc(NCc4cscn4)cc2C3)[nH]1` [Example 2-14-36, 4-Morpholino-6-(7-((thiazol-4-ylmethyl)amino)-9H-xanthen-4-yl) pyridin-2(1H)-one] gave an IC50 of 100 to 500 nM.
Work on `CC(Nc1ccc2c(c1)Cc1cccc(-c3cc(N4CCOCC4)cc(=O)[nH]3)c1O2)c1ccnc(F)c1` (stereo not shown) [Example 2-14-25] yielded an IC50 of 100 to 500 nM.
Work on `Nc1ccc2c(c1)Cc1ccc(F)c(-c3cc(N4CCOCC4)cc(=O)[nH]3)c1O2` [Example 2-45, 6-(7-Amino-3-fluoro-9H-xanthen-4-yl)-4-morpholinopyridin-2(1H)-one] yielded an IC50 of 100 to 500 nM.
`O=c1cc(N2CCOCC2)cc(-c2cccc3c2Oc2ccc(NC4CCN(Cc5ccsc5)CC4)cc2C3)[nH]1` [Example 2-28-26, 4-Morpholino-6-(7-((1-(thiophen-3-ylmethyl)piperidin-4-yl)amino)-9H-xanthen-4-yl)pyridin-2(1H)-one] showed an IC50 of 100 to 500 nM.
For `Cc1ccnc(C(CF)Nc2ccc3c(c2)Cc2cccc(-c4cc(N5CCOCC5)cc(=O)[nH]4)c2O3)n1` (stereo not shown) [Example 2-14-81, 6-(7-((2-Fluoro-1-(4-methylpyrimidin-2-yl)ethyl)amino)-9H-xanthen-4-yl)-4-morpholino pyridin-2(1H)-one], the IC50 was 100 to 500 nM.
`O=c1cc(N2CCOCC2)cc(-c2cccc3c2Oc2ccc(NC4CCCN(CCc5ccccc5)CC4)cc2S3)[nH]1` (stereo not shown) [Example 4-6-2, 4-Morpholino-6-(8-((1-phenethylazepan-4-yl)amino)phenoxathiin-4-yl)pyridin-2(1H)-one] showed an IC50 of 100 to 500 nM.
`COC1CN(CCC(Nc2ccc3c(c2)Sc2cccc(-c4cc(N5CCOCC5)cc(=O)[nH]4)c2S3)c2ccc(C)cn2)C1` (single isomer, unassigned) [Example 1-51-8, 6-(7-((3-(3-Methoxyazetidin-1-yl)-1-(5-methylpyridin-2-yl)propyl)amino)thianthren-1-yl)-4-morpholino pyridin-2 (1H)-one] was tested, and the IC50 was under 100 nM.
`COc1ncccc1CNc1ccc2c(c1)Cc1cccc(-c3cc(N4CCOCC4)cc(=O)[nH]3)c1O2` [Example 2-13-12, 6-(7-(((2-Methoxypyridin-3-yl)methyl)amino)-9H-xanthen-4-yl)-4-morpholino pyridin-2(1H)-one] gave an IC50 of 100 to 500 nM.
With `O=c1cc(N2CCOCC2)cc(-c2cccc3c2Oc2ccc(NCc4cncc(C5CCCC5)c4)cc2C3)[nH]1` [Example 2-2-66, 6-(7-(((5-Cyclopentylpyridin-3-yl)methyl)amino)-9H-xanthen-4-yl)-4-morpholino pyridin-2(1H)-one] the IC50 was under 100 nM.
With `CC(Nc1ccc2c(c1)Cc1cccc(-c3cc(N4CCOCC4)cc(=O)[nH]3)c1O2)c1cccnc1` (single isomer, unassigned) [Example 2-36-1, 4-morpholino-6-(7-((1-(pyridin-3-yl)ethyl)amino)-9H-xanthen-4-yl)pyridin-2(1H)-one] the IC50 was 500 to 2000 nM.
`O=c1cc(N2CCOCC2)cc(-c2cccc3c2Oc2ccc(NCc4ccsc4)cc2C3)[nH]1` [Example 2-14-35, 4-Morpholino-6-(7-((thiophen-3-ylmethyl)amino)-9H-xanthen-4-yl) pyridin-2(1H)-one] showed an IC50 of 100 to 500 nM.
In the case of `O=c1cc(N2CCOCC2)cc(-c2cccc3c2Oc2ccc(NC4CCN(CCc5ccccc5)C4)cc2C3)[nH]1` (stereo not shown) [Example 2-19-7, 4-Morpholino-6-(7-((1-phenethylpyrrolidin-3-yl)amino)-9H-xanthen-4-yl)pyridin-2(1H)-one], the IC50 is reported as 100 to 500 nM.
`CN(C)c1nccc(CN2CCC(Nc3ccc4c(c3)Cc3cccc(-c5cc(N6CCOCC6)cc(=O)[nH]5)c3O4)CC2)n1` [Example 2-28-16, 6-(7-((1-((2-(Dimethylamino)pyrimidin-4-yl)methyl)piperidin-4-yl)amino)-9H-xanthen-4-yl)-4-morpholino pyridin-2(1H)-one] showed an IC50 of 100 to 500 nM.
With `CC1CC(C)CN(CC(CO)Nc2ccc3c(c2)Sc2cccc(-c4cc(N5CCOCC5)cc(=O)[nH]4)c2S3)C1` (stereo not shown) [Example 1-37-5, 6-(7-((1-(3,5-Dimethylpiperidin-1-yl)-3-hydroxypropan-2-yl)amino)thianthren-1-yl)-4-morpholino pyridin-2 (1H)-one] the IC50 was 100 to 500 nM.
